Legend:
[1] = system: CH58TF infected primary CD4+ T-cells; experiment: HIV+ patient sera/plasma recognition of CH58TF infected primary CD4+ T-cells (flow cytometry cell-surface staining); assay type: cell-based, HIV-1; settings: Human immunodeficiency virus 1, T-cell, read-out: Fold Over DMSO (patient sera, n = 3)
Protocol: (§1) Cell-surface staining of primary CD4+ T cells from healthy HIV uninfected individuals or CEM-NKr cells is performed, as described in Prevost, “Influence of the Envelope gp120 Phe 43 Cavity on HIV-1 Sensitivity to Antibody-Dependent Cell-Mediated Cytotoxicity Responses,” 2017, J. Virol 91; Richard, “CD4 mimetics sensitize HIV-1-infected cells to ADCC,” 2015, Proc. Natl. Acad. Sci. USA, 112:E2687-2694; Richard, “Small CD4 Mimetics Prevent HIV-1 Uninfected Bystander CD4+ T Cell Killing Mediated by Antibody-dependent Cell-mediated Cytotoxicity,” 2016, EBioMedicine 3:122-134; Veillette, “The HIV-1 gp120 CD4-Bound Conformation Is Preferentially Targeted by Antibody-Dependent Cellular Cytotoxicity-Mediating Antibodies in Sera from HIV-1-Infected Individuals,” 2015, J. Virol., 89:545-551; Veillette, “Interaction with cellular CD4 exposes HIV-1 envelope epitopes targeted by antibody-dependent cell-mediated cytotoxicity,” 2014, J. Virol., 88:2633-2644; Richard, “Uninfected Bystander Cells Impact the Measurement of HIV-Specific Antibody-Dependent Cellular Cytotoxicity Responses,” 2018, MBio. 9(2): e00358-18; Richard, “BST-2 Expression Modulates Small CD4-Mimetic Sensitization of HIV-1-Infected Cells to Antibody-Dependent Cellular Cytotoxicity,” 2017, J. Virol. 91(11):e00219-17. Binding of HIV-1 infected cells by HIV+ sera (1:1000 dilution) or anti-Env Abs (such as 17b) is performed […] in vitro infection at 37° C. in presence of different concentrations of the MCG analogs or with equivalent volume of vehicle (DMSO). Cells infected with HIV-1 primary isolates are stained intracellularly for HIV-1 p24 using the Cytofix/Cytoperm Fixation/Permeabilization Kit (BD Biosciences, Mississauga, ON, Canada) and then fluorescent anti-p24 mAb (PE-anti-p24, clone KC57; Beckman Coulter/Immunotech, Hialeah, FL) (1:100 final concentration). The percentage of infected cells (p24^+ or GFP+ cells) is determined by gating the living cell population based on the viability dye staining. Samples are analyzed on an LSRII cytometer (BD Biosciences, Mississauga, ON, Canada) and data analysis is performed using FlowJo vX0.7 (Tree Star, Ashland, OR, USA).
HIV+ Patient Sera (n=3) Recognition of CH58TF Infected Primary CD4+ T-Cells
Staining with patient sera and 50 μM of compounds given as a fold change over DMSO (vehicle).
(§2) Briefly, Primary CD4 T cells isolated from PBMC were infected with HIV-1CH58TF for 48 hours. For cell surface staining, 5 μg/ml 17b (FIG. 15A) or 1:1000 diluted HIV+ plasma (n=15) (FIG. 15B) were used in the presence of the different MCG analogs (50 μM), (+)-BNM-III-170 or with an equivalent volume of vehicle (DMSO). An Alexa Fluor 647-conjugated anti-human IgG secondary Ab was then used for fluorescent labeling. For ADCC (FIG. 15C), infected cells were used as target cells in a FACS-based ADCC assay that measures the killing of infected (p24+ cells). See, Madani, 2016, J. Virol., 90:5031-5046. The assay determines susceptibility to ADCC mediated by a 1/1,000 dilution of plasma from 15 HIV-1-infected individuals in the presence of the different MCG analogs (50 μM), (+)-BNM-III-170 (50 μM) or with an equivalent volume of vehicle (DMSO). Correlation between cell-surface staining with HIV+ plasma and ADCC was calculated using the Spearman rank correlation (FIG. 15D).

[2] = system: CH58TF infected primary CD4+ T-cells; experiment: Recognition of HIV-1 infected cells by 17b (flow cytometry cell-surface staining); assay type: cell-based; settings: Human immunodeficiency virus 1, T-cell, read-out: Fold Over DMSO (17b, n = 1)
Protocol: as §1, §2

[3] = system: HIV-1JR-FL EnvΔCT expressed at the surface of HOS cells; experiment: Cell-based ELISA (CBE), 17b readout; settings: MCG analogs 50 μM; BNM-III-170 5 μM; 2G12 and DMSO normalized
Protocol: Detection of trimeric HIV-1 Env at the surface of HOS cells was performed by cell-based ELISA, as described in Desormeaux, “The highly conserved layer-3 component of the HIV-1 gp120 inner domain is critical for CD4-required conformational transitions,” J. Virol. 87:2549-2562; Alsahafi, “Effects of the I559P gp41 change on the conformation and function of the human immunodeficiency virus (HIV-1) membrane envelope glycoprotein trimer,” 2015, PLoS One 10:e0122111; and Veillette, “Conformational evaluation of HIV-1 trimeric envelope glycoproteins using a cell-based ELISA assay,” 2014, J. Vis. Exp., 91:51995. To enhance cell-surface expression of HIV-1 EnvRF a stop codon was introduced to replace the codon for Gly 711, truncating the cytoplasmic tail (ACT). Briefly, HOS cells were seeded in T-75 flasks (3×10^6 cells per flask) and transfected the next day with 22.5 μg of Env-expressing plasmids (wild-type and mutants S375W, S375T, H66A, A582T/L587A, etc) using the standard polyethylenimine (PEI, Polyscience Inc, PA, USA) transfection method. Twenty-four hours after transfection, cells were plated in 384-wells plates (2×10^4 cells per well). One day later, cells were washed twice with blocking buffer (10 mg/mL non-fat dry milk, 1.8 mM CaCl2), 1 mM MgCl2, 25 mM Tris, pH 7.5 and 140 mM NaCl) and then incubated for 30 minutes at room temperature with different concentrations of MCG analogs or equivalent volume of vehicle (DMSO). Cells were then incubated for an additional 1 h at room temperature with anti-HIV-1 Env monoclonal antibodies recognizing CD4-induced gp120 epitopes (17b, A32), CD4-binding site gp120 epitopes (VRC03, VRC01, F105, and b12), gp120 V3 glycans (19b, PGT126, PGT122, and 10.1074), gp120 outer domain (2G12), and gp120-gp41 interface (PGT151 and VRC34) epitopes. All ligands were diluted in blocking buffer. A horseradish peroxidase-conjugated antibody specific for the Fc region of human or mouse IgG (Pierce) was then incubated with the samples for 45 minutes at room temperature. For all conditions, cells were washed 5 times with blocking buffer and 5 times with washing buffer (1.8 mM CaCl2), 1 mM MgCl2, 25 mM Tris, pH 7.5 and 140 mM NaCl). HRP enzyme activity was determined after the addition of 20 μl per well of a 1:1 mix of Western Lightning oxidizing and luminol reagents (Perkin Elmer Life Sciences). Light emission was measured with an LB 941 TriStar luminometer (Berthold Technologies) and analysis with Graph Pad software.
The data of Table 2 is given as the fold over BNM-III-170 (5 μM) of Cell-Based ELISA with MCG Analogs (50 μM)—17b readout, 2G12 and DMSO normalized.
To identify molecules able to expose vulnerable Env epitopes, a cell-based ELISA (CBE) assay was adapted, capable of measuring conformational changes of membrane-bound trimeric Env as described in Veillette, 2014, J. Vis. Exp. doi:10.3791/51995:51995; Haim, 2011, PLoS Pathog 7:e1002101, into a high-throughput screening (HTS) platform (FIG. 10A). Briefly, the cytoplasmic-tail deleted HIV-1JR-FL Tier-2/3 Env was expressed on the surface of HOS cells in a 384-well-plate format. The cytoplasmic tail of Env was deleted to enhance Env expression at the cell surface and therefore enhance the sensitivity of the CBE assay. See, Veilette and Haim, 2009, PLoS Pathog 5:e100036. Small molecules or, as a positive control, soluble (sCD4) were added to expose the HIV-1JR-FL EnvΔCT epitope that can be recognized by the CD4i antibody 17b. See, Wyatt, 1995, J. Virol. 69:5723-5733; Rizzuto, 1998, Science 280:1949-1953.
17b binding was detected by a horseradish peroxidase-conjugated (HRP) second antibody, and HRP enzyme activity was measured by Western Lightning oxidizing and luminal reagents. 17b binding in the presence of sCD4 was set as the control (FIG. 10B, blue dots), small molecules that enhanced 17b binding above 25% of the one induced by sCD4 were retested in quadruplicate and only one molecule (UM0059920) was deemed a true positive (FIG. 10B, red dots). […]

Row | SMILES | fold induction at 50 µM [1] | fold induction at 50 µM [2] | Fold over BNM-III-170 - 17b binding (±0.05) [3] [fold]
1 | O=C(Nc1ccc(Cl)c(F)c1)[C@H]1CCCN(S(=O)(=O)c2ccccc2)C1 [(S)-MCG-III-085-D01] | 5.95 | 6.4 | 0.45
2 | O=C(Nc1ccc(F)c(Cl)c1)[C@H]1CCCN(S(=O)(=O)c2ccccc2)C1 [(S)-MCG-III-085-D02] | 1.37 | 2.54 | 0.18
3 | O=C(Nc1ccc(Cl)c(F)c1)C1Cc2ccccc2N(S(=O)(=O)c2ccccc2)C1 (stereo not shown) [MCG-III-214-A03] | 1.05 | 0.911 | 0.09
4 | O=C(Oc1ccc(Cl)c(F)c1)[C@H]1CCCN(S(=O)(=O)c2ccccc2)C1 [(S)-MCG-III-213-A03] | 1.08 | 0.928 | 0.05
5 | Cn1cnc(S(=O)(=O)N2CC(C(=O)Nc3ccc(Cl)c(F)c3)Cc3ccccc32)c1 (stereo not shown) [MCG-III-214-A04] | 0.924 | 1.15 | 0.18
6 | CS(=O)(=O)N1CCC(C(=O)Nc2ccc(Cl)c(F)c2)CC1 [MCG-III-101] | 1.14 |  | 0.21
7 | N#Cc1ccc(S(=O)(=O)N2CCC[C@H](C(=O)Nc3ccc(Cl)c(F)c3)C2)cc1 [(S)-MCG-III-116-A06] | 1.15 |  | 0.31
8 | O=C(Nc1ccc(Cl)c(F)c1)C1CN(S(=O)(=O)c2ccccc2)CCO1 (stereo not shown) [MCG-III-211-A03] | 1.7 | 2.64 | 0.28
9 | CCS(=O)(=O)N1CCC[C@H](C(=O)Nc2ccc(Br)c(Cl)c2)C1 [(S)-MCG-III-085-C06] | 1.28 | 3.1 | 0.34
10 | CC(C)(C)OC(=O)N1CCN(S(=O)(=O)c2ccccc2)CC1C(=O)Nc1ccc(Cl)c(F)c1 (stereo not shown) [MCG-III-212-A03] | 1.24 | 1.1 | 0.06
11 | O=C(Nc1ccc(Cl)c(Cl)c1)[C@H]1CCCN(S(=O)(=O)c2ccccc2)C1 [(S)-MCG-III-085-D03] | 2.03 | 4.87 | 0.20
12 | O=C(Nc1ccc(Cl)c(Br)c1)[C@H]1CCCN(S(=O)(=O)c2ccccc2)C1 [(S)-MCG-III-085-D05] | 1.55 | 5.58 | 0.10
13 | CS(=O)(=O)N1CCCC(NC(=O)c2ccc(Cl)c(F)c2)C1 (stereo not shown) [MCG-III-157-C01] | 1.04 |  | 0.08
14 | O=C(Nc1ccc(Cl)c(F)c1)[C@H]1CCCN(S(=O)(=O)C2CCCCC2)C1 [(S)-MCG-III-116-A03] | 1.56 |  | 0.36
15 | COc1ccc(S(=O)(=O)N2CCC[C@H](C(=O)Nc3ccc(Cl)c(F)c3)C2)cc1 [(S)-MCG-III-116-A05] | 1.1 |  | 0.29
16 | CC(=O)Nc1ccc(S(=O)(=O)N2CCC[C@H](C(=O)Nc3ccc(Cl)c(F)c3)C2)cc1 [(S)-MCG-III-117] | 1.89 |  | 0.21
17 | O=C(Nc1ccc(F)c(F)c1)[C@H]1CCCN(S(=O)(=O)c2ccccc2)C1 [(S)-MCG-III-085-D04] | 1.84 | 3.15 | 0.28
18 | O=C(Nc1ccc(Br)c(Cl)c1)[C@H]1CCCN(S(=O)(=O)c2ccccc2)C1 [(S)-MCG-III-085-D06] | 2 | 6.46 | 0.19
19 | O=C(Nc1ccc(Cl)c(F)c1)[C@H]1CCCN(S(=O)(=O)c2cccnc2)C1 [(S)-MCG-III-116-A01] | 2.15 |  | 0.41
20 | O=C(Nc1ccc(Cl)c(F)c1)[C@H]1CCCN(S(=O)(=O)c2ccc(Br)cc2)C1 [(S)-MCG-III-128] | 1.07 |  | 0.21

Reference: US12286401B2, “Small molecules that sensitize HIV-1 infected cells to antibody dependent cellular cytotoxicity” (THE TRUSTEES OF THE UNIVERSITY OF PENNSYLVANIA, priority 2018, dated 2025)
